# Results from ChEMBL document CHEMBL5620398, “Membrane-active substituted triazines as antibacterial agents against Staphylococcus aureus with potential for low drug resistance and broad activity” (Eur J Med Chem, 2023).
# Calls of active or inactive are those of the source. No cut-off for these calls is given here.
# Tested on: Enterococcus faecalis
# Assay: Antibacterial activity against Enterococcus faecalis assessed as inhibition of bacterial growth by two-fold serial broth dilution method
# Format: functional
row,SMILES,MIC [µg/mL]
1,CCN(CC)CCNc1nc(NN2C(=O)c3cccc4cccc(c34)C2=O)nc(N2CCOCC2)n1,200
2,O=C1c2cccc3cccc(c23)C(=O)N1Nc1nc(Nc2ccc(F)cc2)nc(N2CCOCC2)n1,200
3,O=C1c2cccc3cccc(c23)C(=O)N1Nc1nc(NCCN2CCOCC2)nc(N2CCOCC2)n1,200
4,Cc1ccc(CNc2nc(NN3C(=O)c4cccc5cccc(c45)C3=O)nc(N3CCOCC3)n2)cc1,50
5,CCN1CCN(c2nc(NN3C(=O)c4cccc5cccc(c45)C3=O)nc(N3CCOCC3)n2)CC1,200

# Tested on: Bacillus subtilis
# Assay: Antibacterial activity against Bacillus subtilis assessed as inhibition of bacterial growth by two-fold serial broth dilution method
# Format: functional
row,SMILES,MIC [µg/mL]
1,CCN(CC)CCNc1nc(NN2C(=O)c3cccc4cccc(c34)C2=O)nc(N2CCOCC2)n1,50
2,O=C1c2cccc3cccc(c23)C(=O)N1Nc1nc(Nc2ccc(F)cc2)nc(N2CCOCC2)n1,200
3,O=C1c2cccc3cccc(c23)C(=O)N1Nc1nc(NCCN2CCOCC2)nc(N2CCOCC2)n1,200
4,Cc1ccc(CNc2nc(NN3C(=O)c4cccc5cccc(c45)C3=O)nc(N3CCOCC3)n2)cc1,12.5
5,CCN1CCN(c2nc(NN3C(=O)c4cccc5cccc(c45)C3=O)nc(N3CCOCC3)n2)CC1,200

# Tested on: Listeria
# Assay: Antibacterial activity against Listeria sps. assessed as inhibition of bacterial growth by two-fold serial broth dilution method
# Format: functional
row,SMILES,MIC
1,CCN(CC)CCNc1nc(NN2C(=O)c3cccc4cccc(c34)C2=O)nc(N2CCOCC2)n1,0.19 µg/mL
2,O=C1c2cccc3cccc(c23)C(=O)N1Nc1nc(Nc2ccc(F)cc2)nc(N2CCOCC2)n1,inactive
3,O=C1c2cccc3cccc(c23)C(=O)N1Nc1nc(NCCN2CCOCC2)nc(N2CCOCC2)n1,0.048 µg/mL
4,Cc1ccc(CNc2nc(NN3C(=O)c4cccc5cccc(c45)C3=O)nc(N3CCOCC3)n2)cc1,25 µg/mL
5,CCN1CCN(c2nc(NN3C(=O)c4cccc5cccc(c45)C3=O)nc(N3CCOCC3)n2)CC1,3.12 µg/mL

# Tested on: Staphylococcus aureus
# Assay: Antibacterial activity against Staphylococcus aureus assessed as inhibition of bacterial growth by two-fold serial broth dilution method
# Format: functional
row,SMILES,MIC [µg/mL]
1,CCN(CC)CCNc1nc(NN2C(=O)c3cccc4cccc(c34)C2=O)nc(N2CCOCC2)n1,100
2,O=C1c2cccc3cccc(c23)C(=O)N1Nc1nc(Nc2ccc(F)cc2)nc(N2CCOCC2)n1,50
3,O=C1c2cccc3cccc(c23)C(=O)N1Nc1nc(NCCN2CCOCC2)nc(N2CCOCC2)n1,3.12
4,Cc1ccc(CNc2nc(NN3C(=O)c4cccc5cccc(c45)C3=O)nc(N3CCOCC3)n2)cc1,12.5
5,CCN1CCN(c2nc(NN3C(=O)c4cccc5cccc(c45)C3=O)nc(N3CCOCC3)n2)CC1,50

# Tested on: Escherichia coli
# Assay: Antibacterial activity against Escherichia coli assessed as inhibition of bacterial growth by two-fold serial broth dilution method
# Format: functional
row,SMILES,MIC [µg/mL]
1,CCN(CC)CCNc1nc(NN2C(=O)c3cccc4cccc(c34)C2=O)nc(N2CCOCC2)n1,200
2,O=C1c2cccc3cccc(c23)C(=O)N1Nc1nc(Nc2ccc(F)cc2)nc(N2CCOCC2)n1,400
3,O=C1c2cccc3cccc(c23)C(=O)N1Nc1nc(NCCN2CCOCC2)nc(N2CCOCC2)n1,100
4,Cc1ccc(CNc2nc(NN3C(=O)c4cccc5cccc(c45)C3=O)nc(N3CCOCC3)n2)cc1,200
5,CCN1CCN(c2nc(NN3C(=O)c4cccc5cccc(c45)C3=O)nc(N3CCOCC3)n2)CC1,100

# Tested on: Salmonella enterica
# Assay: Antibacterial activity against Salmonella enterica assessed as inhibition of bacterial growth by two-fold serial broth dilution method
# Format: functional
row,SMILES,MIC [µg/mL]
1,CCN(CC)CCNc1nc(NN2C(=O)c3cccc4cccc(c34)C2=O)nc(N2CCOCC2)n1,200
2,O=C1c2cccc3cccc(c23)C(=O)N1Nc1nc(Nc2ccc(F)cc2)nc(N2CCOCC2)n1,200
3,O=C1c2cccc3cccc(c23)C(=O)N1Nc1nc(NCCN2CCOCC2)nc(N2CCOCC2)n1,200
4,Cc1ccc(CNc2nc(NN3C(=O)c4cccc5cccc(c45)C3=O)nc(N3CCOCC3)n2)cc1,200
5,CCN1CCN(c2nc(NN3C(=O)c4cccc5cccc(c45)C3=O)nc(N3CCOCC3)n2)CC1,200

# Tested on: Acinetobacter calcoaceticus
# Assay: Antibacterial activity against Acinetobacter calcoaceticus assessed as inhibition of bacterial growth by two-fold serial broth dilution method
# Format: functional
row,SMILES,MIC [µg/mL]
1,CCN(CC)CCNc1nc(NN2C(=O)c3cccc4cccc(c34)C2=O)nc(N2CCOCC2)n1,200
2,O=C1c2cccc3cccc(c23)C(=O)N1Nc1nc(Nc2ccc(F)cc2)nc(N2CCOCC2)n1,200
3,O=C1c2cccc3cccc(c23)C(=O)N1Nc1nc(NCCN2CCOCC2)nc(N2CCOCC2)n1,200
4,Cc1ccc(CNc2nc(NN3C(=O)c4cccc5cccc(c45)C3=O)nc(N3CCOCC3)n2)cc1,100
5,CCN1CCN(c2nc(NN3C(=O)c4cccc5cccc(c45)C3=O)nc(N3CCOCC3)n2)CC1,200

# Tested on: Serratia marcescens
# Assay: Antibacterial activity against Serratia marcescens assessed as inhibition of bacterial growth by two-fold serial broth dilution method
# Format: functional
row,SMILES,MIC [µg/mL]
1,CCN(CC)CCNc1nc(NN2C(=O)c3cccc4cccc(c34)C2=O)nc(N2CCOCC2)n1,12.5
2,O=C1c2cccc3cccc(c23)C(=O)N1Nc1nc(Nc2ccc(F)cc2)nc(N2CCOCC2)n1,200
3,O=C1c2cccc3cccc(c23)C(=O)N1Nc1nc(NCCN2CCOCC2)nc(N2CCOCC2)n1,50
4,Cc1ccc(CNc2nc(NN3C(=O)c4cccc5cccc(c45)C3=O)nc(N3CCOCC3)n2)cc1,100
5,CCN1CCN(c2nc(NN3C(=O)c4cccc5cccc(c45)C3=O)nc(N3CCOCC3)n2)CC1,100

# Tested on: SK-MEL-5
# Assay: Cytotoxicity against human SK-MEL-5 cells assessed as inhibition of cell growth at 10 uM
# Format: functional
row,SMILES,inhibition at 10 µM [%]
1,O=c1[nH]cc(F)c(=O)[nH]1 [FLUOROURACIL],66.3

# Tested on: HOP-92
# Assay: Cytotoxicity against human HOP-92 cells assessed as inhibition of cell growth at 10 uM
# Format: functional
row,SMILES,inhibition at 10 µM [%]
1,O=c1[nH]cc(F)c(=O)[nH]1 [FLUOROURACIL],50.6

# Tested on: MOLT-4
# Assay: Cytotoxicity against human MOLT-4 cells assessed as inhibition of cell growth at 10 uM
# Format: functional
row,SMILES,inhibition at 10 µM [%]
1,O=c1[nH]cc(F)c(=O)[nH]1 [FLUOROURACIL],42.3
